The text below walks through data of a melting point compilation (Tetko et al.; mined from patent text by program, amines drawn as free bases though some values may be those of a salt).

For `CC(=O)OCC1CC(Nc2cc(Cl)c(Cl)cc2N)C(OC(C)=O)C1OC(C)=O` (stereo unspecified), the melting point lay in the range of 124 to 125 °C. As for `COc1cc2ccnc(C(S)(C#N)CCC(=O)O)c2cc1OC` (stereo unspecified), the figure is 169 to 170 °C.

In the case of `COc1cc(C(O)(C(F)(F)F)C(F)(F)F)cc(C)c1O`, the melting point fell in the range of 44 to 45 °C. Compound `CCOC(=O)c1cc(-c2ccccc2)n(-c2cccc(C)c2)c1C` showed a melting point of 103 to 104 °C. As for `CN1CCN(c2nc3cccc4c3n2CCC4)CC1`, the figure is 112 to 113 °C; as for `COc1ccnc(CCc2ccnc(N)c2N)c1`, 89 to 91 °C; as for `C=CCOc1ccc(C=CC(=O)N2CCN(c3nc(N)c4cc(OC)c(OC)cc4n3)CC2)cc1`, 218 to 220 °C. As for `OC1CCN(c2ccccc2)C12CCN(C1CC3CCCCCC3C1)CC2` (stereo unspecified), the figure is 219 °C. As for `C=C(C)CNc1cccc(-c2ccnc3c(C(=O)c4cccs4)cnn23)c1`, the figure is 104 to 106 °C; as for `CC1(C)N=C(c2ccccc2)CC1c1ccncc1` (stereo unspecified), 90 to 92 °C; as for `O=C(O)c1ccc(OCCCO/N=C/c2cc(C(F)(F)F)cc(C(F)(F)F)c2)cc1O`, 182 to 183 °C.

Compound `S=C(Cc1ccc2ccccc2c1)N1CCCCC1` gave a melting point of 89 to 91 °C. `C#CCOc1cc(-c2nc3n(c2Cl)CCCC3)c(F)cc1Cl` had a melting point of 142 to 145 °C. `CC(C)(O)COc1ccc(/C=C/C(=O)O)c(Oc2ncc(C(F)(F)F)cc2Cl)c1` came in with a melting point of 126 to 128 °C. As for `OCc1cn(Cc2ccccc2)nc1OCc1ccccc1`, the figure is 79 to 80 °C; as for `CCOC(=O)c1cc2n(c1)CN(C(=O)OCC)c1ccc(Br)cc1-2`, 161 to 163 °C.

`CC(OCc1ccc(-c2ccccc2)cc1)C(=O)NO` (stereo unspecified) returned a melting point of 120 to 123 °C. As for `C=C(C)Cn1ncc(Cl)c(Cl)c1=O`, the figure is 52 to 54 °C; as for `Cc1ccc(-c2c(C#N)cnc3ccccc23)cc1`, 96 to 97 °C; as for `c1ccc(-c2ccc3[nH]c4ccccc4c3c2)cc1`, 221 °C. As for `CC1Cc2cc(C3C(=O)Oc4c3cc(C(C)(C)C)cc4C(C)(C)C)ccc2O1` (stereo unspecified), the figure is 136 to 152 °C; as for `Cn1c(C(F)(F)F)ccc(-c2c(F)cc(Cl)c3oc(C(=O)O)cc23)c1=O`, 233 to 235 °C. As for `O=C(NC(c1ccccc1)c1ccccc1)N1CCC(C(=O)O)(c2ccccc2)CC1`, the figure is 208 °C; as for `N[C@@]1(C(=O)O)C[C@H](NC(=O)Nc2c(Cl)cccc2Cl)[C@H]2[C@H](C(=O)O)[C@H]21` (relative stereo), above 250 °C; as for `COC(=O)CCCc1cc2nc(Cl)ccc2n1S(=O)(=O)c1c(F)cccc1F`, 107 to 109 °C. With `CC(C)(C)c1cnc(CSc2cnc(NC(=O)Cc3ccc(OCCCC(=O)Nc4ccccn4)cc3)s2)o1`, the melting point lay in the range of 126 to 129 °C. As for `ClC(Cl)(Oc1ccccc1)Oc1ccccc1`, the figure is 42 to 44 °C.

Compound `CC1(C)OC(=O)Nc2ccc(-c3cc(F)cc(Cl)c3)cc21` came in with a melting point of 193 to 194 °C. As for `CCNC(=C[N+](=O)[O-])NCCSCc1nccs1`, the figure is 115 to 116 °C. As for `N#CCOc1ccc(-c2ccccc2)cc1`, the figure is 81 to 83 °C; as for `COc1cc2c(cc1[N+](=O)[O-])-c1c(-c3cccs3)c3c(n1CC2)C(=O)N(C(C)(C)C)CC3`, 226 to 227 °C.

Compound `O=C1CCC2(CCCc3ccccc32)CC1` gave a melting point of 109 to 111 °C.

For `COc1c(Cl)ccc(Cl)c1C(=O)NOCC(=O)O`, the melting point lay in the range of 145 to 154 °C. As for `CCCCN1CCC(c2c[nH]c3ccc(NS(C)(=O)=O)cc23)CC1`, the figure is 78 °C; as for `CCOCc1cc2cc(Br)ccc2oc1=Nc1ccccc1`, 78 to 80 °C; as for `COC(=O)c1c(Br)c(F)cc2[nH]ncc12`, 169 to 171 °C. In turn, `O=C(O)C1=Cc2cc(-c3ccccc3)ccc2OC1C(F)(F)F` (stereo unspecified) had a melting point of 197 to 198 °C. As for `CC(C)(C)c1ccc2c(c1)C=C(C(=O)O)CC2`, the figure is 185 to 186 °C; as for `Cc1cc2c(c(-c3cccc(Cl)c3)c1)OC(CN)C2` (stereo unspecified), 90 to 93 °C. As for `CCCN(CCC)c1c(CC)nn2c(-c3ccc(N(C)C)cc3C(F)(F)F)cccc12`, the figure is 69.1 to 79.8 °C. Turning to `CCOC(=O)c1ccc(-c2cc(O)c(C(CC(C)C)SC3CCCC3)c(=O)o2)cc1` (stereo unspecified), the melting point lay within 174 to 176 °C.

Turning to `Cc1ccc(-c2ccc(C=Cc3ccc(Cl)cc3)s2)s1`, the melting point was in the range of 157 to 162 °C. Consider `CC(C)SC[C@@H](C[C@H](O)[C@H](CC1CCCCC1)C(=O)OC(C)(C)C)C(C)C`, for which the melting point lay within 107 to 108 °C.

For `CC(=O)NC1(c2ccc(C(C)O)cc2)CC1` (stereo unspecified), the melting point is 114 to 116 °C. As for `Clc1ccc(-c2nnc(Cl)s2)cc1`, the figure is 125 to 127 °C; as for `Cc1cc(NCCO)c2[nH]nc(-c3ccc(Cl)cc3)c2n1`, 222 to 224 °C; as for `Cc1cccc(NC(=O)NCC(=O)N(CC(=O)OCC(F)(F)F)c2ccccc2)c1`, 172 °C. As for `CNC(=O)OCC(F)(F)Cn1nc(C)c(-c2ccc3c(c2)NC(=O)CO3)c1-c1ccc(F)cc1`, the figure is 112 °C. Compound `CCC(O)(CC)[C@H](C[C@H](O)[C@H](CC1CCCCC1)NC(=O)[C@H](Cc1cscn1)NC(=O)OC(C)(C)C)C(=O)NC` registered a melting point of 165 to 168 °C. As for `COc1cc2c(cc1OC)C1=NCCc3cccc(c31)C2=O`, the figure is 228 °C. As for `CC(C)(Cc1cc2cc(OCc3ccc4ccccc4n3)ccc2n1Cc1ccc(Cl)cc1)C(=O)O`, the figure is 193 to 194 °C; as for `CCCN1CCc2c(NC(C)=O)ccc(Br)c2C1`, 144 to 145 °C; as for `C=CCNC(=O)N1CCC1c1ccccc1F` (stereo unspecified), 119 to 120 °C. In turn, `CC(C)=CCC/C(C)=C/CC/C(C)=C/C(N)=O` showed a melting point of 53 to 53.5 °C. As for `Cc1ccc(S(=O)(=O)NCc2ccc(C(=O)CBr)cc2)cc1`, the figure is 116 to 117 °C. For `O=C(NCc1ccnc(Cl)c1)c1[nH]c2ccc(Cl)cc2c1S(=O)(=O)c1ccccc1`, the melting point lay in the range of 263 to 265 °C.

Compound `Cc1ccc(C)n1-c1ccc(Br)cn1` showed a melting point of 69 °C. As for `CCOC(=O)C1=C(C)NN=C(C(=O)O)C1c1cccc(Cl)c1` (stereo unspecified), the figure is 182 °C. The compound `O=C(ON=C(Br)Br)c1ccc(Cl)cc1` came in with a melting point of 93 to 97 °C.

For `CCOC(=O)c1[nH]c(=O)sc1Br`, the melting point worked out at 121 °C. As for `N#Cc1c(N2CCc3ccccc3CC2)nc(NCCOc2ccccc2)[nH]c1=O`, the figure is above 200 °C; as for `O=C1c2c(Cl)cccc2-n2cnc(C#Cc3ccccc3)c2[C@@H]2CCCN12`, 241 to 242 °C. As for `CCC1=CC(Cl)(NC2CCC(C(C(=O)OC)C(=O)OC)CC2)NC=N1` (stereo unspecified), the figure is 82 to 83 °C; as for `CCn1c2ccc(C(=O)c3ccc(-n4c5ccccc5c5ccccc54)cc3)cc2c2cc(C(C)=NO)ccc21`, 151 to 154 °C; as for `N#Cc1ccc(N(Cc2ccc3cc(O)ccc3c2)n2cnnc2)cc1`, 281 to 284 °C.

Consider `C=CC[C@@]1(NC(=O)OC(C)(C)C)C(=O)[C@@H](C(C)C)N(C(=O)OC(C)(C)C)C1=O`, for which the melting point is 83 °C. Compound `CCc1nc2c(N)nc3cc(OCCNC(C)=O)ccc3c2n1CC1CCOCC1` gave a melting point of 165 to 167 °C. `Cn1c(NC(=O)c2ccccc2)nc2ccccc2c1=O` came in with a melting point of 185 to 187 °C. As for `O=C(O)C1=NN(c2ccc(Cl)cc2)C(c2ccccc2)C1` (stereo unspecified), the figure is 177 to 179 °C; as for `COc1ccc2ccc(N3C(=O)c4ccccc4C3OC(=O)CCCC(C)C)nc2n1` (stereo unspecified), 105 °C; as for `ONCCc1ccccc1`, 118 to 121 °C. As for `CC(C#N)(c1ccc(Cl)cc1)c1ccc(-n2ncc(=O)[nH]c2=O)cc1Cl` (stereo unspecified), the figure is 235 °C. As for `COc1cc(OC)c2c(C)c(CCN3CCC(O)(c4ccccc4)CC3)c(=O)oc2c1`, the figure is 178 to 179 °C; as for `C/C(=C\c1ccc(C(=O)O)cc1)c1ccc2c(c1)C(C)(C)CCO2`, 179 to 181 °C; as for `CC(C)(C)CC(C)(C)C(CCC(=O)O)CC(=O)O` (stereo unspecified), 135 to 137 °C. In turn, `COc1ccc(C(=O)Nc2c(Cl)cc(N)cc2Cl)cc1OC1CCCC1` showed a melting point of 170 to 172 °C. As for `CCCOc1nsc(N)c1C#N`, the figure is 122 to 125 °C. Compound `COc1cccc2c1nc(C(F)F)n2-c1nc(Nc2ccncn2)nc(N2CCOCC2)n1` came in with a melting point of 234 to 236 °C. `CCOC(=O)C1=C(C)Nc2c(C(=O)O)ncn2C1c1cccc([N+](=O)[O-])c1` (stereo unspecified) came in with a melting point of 222 °C. As for `O=c1[nH]nc(-c2ccccc2O)o1`, the figure is 198 to 200 °C; as for `CCNC(=O)c1cc(Oc2nn(C)c(C(F)(F)F)c2Cl)ccc1[N+](=O)[O-]`, 130 °C; as for `Cn1c(C(F)(F)F)cc(=O)n(-c2ccc(O)cc2F)c1=O`, 185 to 190 °C.

Compound `CC(=O)Nc1ccc(C(C)=O)c(C)n1` came in with a melting point of 201 to 202 °C.

The compound `Cc1noc(-c2ncn3c2CN(C)C(=O)c2ccccc2-3)n1` had a melting point of 257 to 260 °C.

`COc1ccc(-n2nc(Sc3cc(C)ccc3C)c(C)c(C#N)c2=O)cc1` yielded a melting point of 140 to 142 °C. As for `CCCCCCCCc1nc2c(N)nc3ccccc3c2n1CCOCC#Cc1ccccc1`, the figure is 138 to 139 °C; as for `C[C@@H](Oc1c(Br)cc(-c2c3ccccc3c(Br)c3sc4ccccc4c23)cc1Br)C(=O)O`, 131 to 133 °C. As for `COC(=O)c1ccc(CC(C)NCC(O)c2cccc(Cl)c2)cc1` (stereo unspecified), the figure is 94 to 96 °C.

`CCc1c(C(=O)c2cc(C)cc(C)c2)n(CC=CC(=O)OC(C)C)c(=O)[nH]c1=O` yielded a melting point of 175 to 176 °C. As for `CCOC(=O)c1cnc(O)nc1-c1ccccc1`, the figure is above 260 °C; as for `CC1=C(Cc2ccc(Cl)cc2)C(=O)C2C=CC=CC2C1=O` (stereo unspecified), 134 to 135 °C.
